Data: patent publication US20120282187A1 (BOEHRINGER INGELHEIM INTERNATIONAL GMBH, priority 2008, published 2012)
Read-outs that look alike come from different tables or passages of the source. Marks after values point to notes of the source that are not given here.

Legend:
[1] = test system: patients with chronic atrial fibrillation; assay: PETRO phase 2 12-week dose finding study; type: in vivo, human
From the text: Primary endpoints were bleeding events and changes in D-dimer. […] Minor bleeding was dose related.

[2] = Clinical pharmacokinetics and pharmacodynamics of dabigatran etexilate; type: in vivo
From the text: Ezekowitz M D, et al., Dabigatran with or without concomitant aspirin compared with warfarin alone in patients with nonvalvular atrial fibrillation (PETRO study), Am. […] The PETRO study is described below.
As noted above, management of warfarin therapy is complex, and failure to adequately monitor patients is associated with risk. […] It also interacts with many common foods, drugs and alcohol which alter its therapeutic effect, putting patients at risk of either a bleeding or thrombotic event. Therefore, warfarin therapy requires careful individualized dosing and frequent monitoring. The significant limitations of VKAs have created a need for an oral anticoagulant with a rapid onset of action, minimal drug interactions, and a predictable anticoagulation effect that needs no monitoring.
(§1) Peak levels are seen within 2-3 hours of oral administration. […] Steady-state is reached within 2-3 days with a twice daily regimen. […] The remainder undergoes conjugation with glucuronic acid to form acylglucuronides which are excreted primarily in the bile.

[3] = test system: cytochrome P-450 drug metabolizing enzymes; assay: Cytochrome P-450 interaction; type: in vitro ADME
Method: as §1

[4] = Solid state and solubility properties; type: physicochemical
[5] = test system: patients with atrial fibrillation
Method: The PETRO-Ex study was conducted in 52 centers in the United States, Denmark, The Netherlands, and Sweden.
PETRO-Ex began while the PETRO study was ongoing and investigators were initially kept blinded to patient treatment group until PETRO was completed. Unblinding investigators to patient treatment was possible thereafter.
Data were summarized descriptively; no hypothesis was to be tested. Events were analyzed on the basis of the treatment at onset. Incidences were reported as of patients with events as well as normalized to 100 patient-years on the respective treatment.
Patients who were down titrated to 50 mg q.d. based on a glomerular filtration rate≦50 mL/min during PETRO were excluded from the long-term trial; patients down-titrated in other dose levels remained on the q.d. treatment at that dose.
The total exposure reflects both trials, PETRO and PETRO-Ex, together.

[6] = PETRO-Ex, including bleeding and thrombotic events

## CCCCCCOC(=O)NC(=N)c1ccc(NCc2nc3cc(C(=O)N(CCC(=O)OCC)c4ccccn4)ccc3n2C)cc1 [Dabigatran etexilate, 1-methyl-2-[N-[4-(N-n-hexyloxycarbonylamidino)phenyl]aminomethyl]benzimidazol-5-ylcarboxylic acid-N-(2-pyridyl)-N-(2-ethoxycarbonylethyl)amides]
[1]; 300 mg b.i.d. plus ASA groups
  Major bleeding events: 6%
  major bleeding events, number: Four
[1]; 50, 150, 300 mg b.i.d.
  Minor bleeding: dose related
[1]; all dabigatran etexilate-treated patients
  Elevated transaminases >3× upper limit of normal (ULN): 0.9%
[1]; of 432 dabigatran etexilate-treated patients
  Elevated transaminases >3× upper limit of normal (ULN), number of patients: 4
[2]; concomitant with dabigatran etexilate
  effect of oral strong P-gp inhibitors verapamil, quinidine or amiodarone on dabigatran plasma concentrations: elevate dabigatran plasma concentrations
[2]; in vivo
  food interactions: no food interactions
[2]; time after dosing
  onset of anticoagulant effect: one
[3]
  metabolism by, induction or inhibition of cytochrome P-450 drug metabolizing enzymes: not metabolized by and does not induce or inhibit
[4]
  hygroscopicity: hygroscopic
  solubility in water: sparingly soluble in water
[5]; 50 mg b.i.d.
  ALT or AST >2xULN, number: 0
  ALT or AST >3xULN and Bili >2xULN within 30 days, number: 0
  ALT or AST >3xULN, number: 0
  ALT or AST >5xULN, number: 0
  Adverse Events leading to premature discontinuation, number: 5
  Adverse Events leading to premature discontinuation, rate: 21.3 per 100 patient-years
  MI, number: 0
  Major Bleeds with aspirin, number: 0
  Major Bleeds without aspirin, number: 0
  Major Bleeds, number: 0
  Other MACE, number: 2
  Stroke and Systemic Thromboembolism, number: 3
  TIA, number: 0
[5]; 50 mg q.d.
  ALT or AST >2xULN, number: 0
  ALT or AST >3xULN and Bili >2xULN within 30 days, number: 0
  ALT or AST >3xULN, number: 0
  ALT or AST >5xULN, number: 0
  Adverse Events leading to premature discontinuation, number: 0
  MI, number: 0
  Major Bleeds with aspirin, number: 0
  Major Bleeds without aspirin, number: 0
  Major Bleeds, number: 0
  Other MACE, number: 0
  Stroke and Systemic Thromboembolism, number: 0
  TIA, number: 0
[5]; 150 mg b.i.d.
  ALT or AST >2xULN, number: 21
  ALT or AST >2xULN, rate: 3.1 per 100 patient-years
  ALT or AST >3xULN and Bili >2xULN within 30 days, number: 3
  ALT or AST >3xULN and Bili >2xULN within 30 days, rate: 0.4 per 100 patient-years
  ALT or AST >3xULN, number: 13
  ALT or AST >3xULN, rate: 1.9 per 100 patient-years
  ALT or AST >5xULN, number: 7
  ALT or AST >5xULN, rate: 1.0 per 100 patient-years
  Adverse Events leading to premature discontinuation, number: 67
  Adverse Events leading to premature discontinuation, rate: 9.8 per 100 patient-years
  MI, number: 6
  Major Bleeds with aspirin, number: 11
  Major Bleeds with aspirin, rate: 8.7 per 100 patient-years
  Major Bleeds without aspirin, number: 18
  Major Bleeds without aspirin, rate: 3.2 per 100 patient-years
  Major Bleeds, number: 29
  Major Bleeds, rate: 4.2 per 100 patient-years
  Major bleeding events: 4.2 % per year
  Other MACE, number: 7
  Stroke and Systemic Thromboembolism, number: 7
  TIA, number: 1
  fatal major bleeds, number: 4
[5]; 150 mg q.d.
  ALT or AST >2xULN, number: 2
  ALT or AST >2xULN, rate: 3.4 per 100 patient-years
  ALT or AST >3xULN and Bili >2xULN within 30 days, number: 0
  ALT or AST >3xULN, number: 0
  ALT or AST >5xULN, number: 0
  Adverse Events leading to premature discontinuation, number: 8
  Adverse Events leading to premature discontinuation, rate: 13.7 per 100 patient-years
  MI, number: 0
  Major Bleeds with aspirin, number: 0
  Major Bleeds without aspirin, number: 3
  Major Bleeds without aspirin, rate: 6.5 per 100 patient-years
  Major Bleeds, number: 3
  Major Bleeds, rate: 5.1 per 100 patient-years
  Other MACE, number: 0
  Stroke and Systemic Thromboembolism, number: 3
  TIA, number: 0
[5]; 300 mg b.i.d.
  ALT or AST >2xULN, number: 4
  ALT or AST >2xULN, rate: 4.9 per 100 patient-years
  ALT or AST >3xULN and Bili >2xULN within 30 days, number: 0
  ALT or AST >3xULN, number: 2
  ALT or AST >3xULN, rate: 2.4 per 100 patient-years
  ALT or AST >5xULN, number: 1
  ALT or AST >5xULN, rate: 1.2 per 100 patient-years
  Adverse Events leading to premature discontinuation, number: 21
  Adverse Events leading to premature discontinuation, rate: 25.6 per 100 patient-years
  MI, number: 0
  Major Bleeds with aspirin, number: 6
  Major Bleeds with aspirin, rate: 32.7 per 100 patient-years
  Major Bleeds without aspirin, number: 4
  Major Bleeds without aspirin, rate: 6.3 per 100 patient-years
  Major Bleeds, number: 10
  Major Bleeds, rate: 12.2 per 100 patient-years
  Major bleeding events: 12.2 % per year
  Other MACE, number: 1
  Stroke and Systemic Thromboembolism, number: 1
  TIA, number: 0
  bleeding events: more than 12 per 100 years
[5]; 300 mg q.d.
  ALT or AST >2xULN, number: 3
  ALT or AST >2xULN, rate: 1.5 per 100 patient-years
  ALT or AST >3xULN and Bili >2xULN within 30 days, number: 1
  ALT or AST >3xULN and Bili >2xULN within 30 days, rate: 0.5 per 100 patient-years
  ALT or AST >3xULN, number: 3
  ALT or AST >3xULN, rate: 1.5 per 100 patient-years
  ALT or AST >5xULN, number: 3
  ALT or AST >5xULN, rate: 1.5 per 100 patient-years
  Adverse Events leading to premature discontinuation, number: 19
  Adverse Events leading to premature discontinuation, rate: 9.6 per 100 patient-years
  MI, number: 1
  Major Bleeds with aspirin, number: 2
  Major Bleeds with aspirin, rate: 3.6 per 100 patient-years
  Major Bleeds without aspirin, number: 3
  Major Bleeds without aspirin, rate: 2.1 per 100 patient-years
  Major Bleeds, number: 5
  Major Bleeds, rate: 2.5 per 100 patient-years
  Major bleeding events: 2.5 % per year
  Other MACE, number: 1
  Stroke and Systemic Thromboembolism, number: 5
  TIA, number: 0
  fatal major bleeds, number: 1
[5]; 300 mg twice daily
  tolerability: not tolerable
[5]; PETRO-Ex
  Serious adverse events: cardiac disorders: 22%
  Serious adverse events: cardiac disorders, pts: 80
  Serious adverse events: gastrointestinal disorders: 7.8%
  Serious adverse events: gastrointestinal disorders, pts: 28
  Serious adverse events: infections: 9.4%
  Serious adverse events: infections, pts: 34
  Serious adverse events: nervous system disorders: 9.1%
  Serious adverse events: nervous system disorders, pts: 33
[5]; PETRO-Ex, 150 mg b.i.d., without concomitant aspirin
  Major bleeding events (per 100 patient years): 3.2%*
[5]; PETRO-Ex, All doses
  LFT abnormalities >3 x-ULN (per 100 patient years): 1.7%
[5]; [6]
  Serious adverse events: 51%
  Serious adverse events, patients: 184
[5]; Total (all doses)
  ALT or AST >2xULN, number: 30
  ALT or AST >2xULN, rate: 2.9 per 100 patient-years
  ALT or AST >3xULN and Bili >2xULN within 30 days, number: 4
  ALT or AST >3xULN and Bili >2xULN within 30 days, rate: 0.4 per 100 patient-years
  ALT or AST >3xULN, number: 18
  ALT or AST >3xULN, rate: 1.7 per 100 patient-years
  ALT or AST >5xULN, number: 11
  ALT or AST >5xULN, rate: 1.1 per 100 patient-years
  Adverse Events leading to premature discontinuation, number: 120
  Adverse Events leading to premature discontinuation, rate: 11.5 per 100 patient-years
  MI, number: 7
  Major Bleeds with aspirin, number: 19
  Major Bleeds with aspirin, rate: 8.5 per 100 patient-years
  Major Bleeds without aspirin, number: 26
  Major Bleeds without aspirin, rate: 3.2 per 100 patient-years
  Major Bleeds, number: 44
  Major Bleeds, rate: 4.2 per 100 patient-years
  Other MACE, number: 11
  Stroke and Systemic Thromboembolism, number: 20
  TIA, number: 1
[5]; Total (all doses), listed as dabigatran etexilate
  ALT or AST >3xULN and Bili >2xULN within 30 days, number: four
[5]; all doses
  concomitant bilirubin elevation >2xULN within 30 days of transaminase elevations >3xULN: 0.4 % per year
  elevated liver transaminases, AST or ALT >3xULN: 1.7 % per year
  fatal intracranial bleeds, number: Three
  fatal major bleeds, number: Five
  transaminases (AST or ALT) >5xULN: 1.1 % per year
[5]; concomitant aspirin vs. none
  bleeding event risk ratio: 2.70
[5]; doses ≦150 mg/day (150 mg q.d. combined with 50 mg b.i.d.)
  major bleed rate: 3.7 % per year
[5]; on concomitant aspirin
  bleeding event rate: 8.5 % per year
[5]; without concomitant aspirin
  bleeding event rate: 3.2 % per year
